According to ChEMBL document CHEMBL4304789, “Design, Synthesis, and Biological Evaluation of 2,4-Imidazolinedione Derivatives as HDAC6 Isoform-Selective Inhibitors” (ACS Med Chem Lett, 2019):
Calls of active or inactive are those of the source. The calls are words filed in the database; no cut-off is given here.

Target: Histone deacetylase (Homo sapiens) (UniProt Q13547+O15379+Q9UBN7+Q92769+Q9UQL6+Q8WUI4+Q9BY41+Q96DB2+P56524+Q9UKV0+Q969S8)
Conditions: at 0.08 to 1.6 µM
Description: Inhibition of HDAC in human HL60 cells assessed as increase in acetylation of H3 at 0.08 to 1.6 uM incubated for 24 hrs by western blot analysis

With `O=C(CCCCCCNC(=O)c1cnc(N(c2ccccc2)c2ccccc2)nc1)NO` the inhibition was “Active”.

Target: T1, Protein deacetylase HDAC6 (Homo sapiens, UniProt Q9UBN7)
T1 sequence (Q9UBN7 whole entry): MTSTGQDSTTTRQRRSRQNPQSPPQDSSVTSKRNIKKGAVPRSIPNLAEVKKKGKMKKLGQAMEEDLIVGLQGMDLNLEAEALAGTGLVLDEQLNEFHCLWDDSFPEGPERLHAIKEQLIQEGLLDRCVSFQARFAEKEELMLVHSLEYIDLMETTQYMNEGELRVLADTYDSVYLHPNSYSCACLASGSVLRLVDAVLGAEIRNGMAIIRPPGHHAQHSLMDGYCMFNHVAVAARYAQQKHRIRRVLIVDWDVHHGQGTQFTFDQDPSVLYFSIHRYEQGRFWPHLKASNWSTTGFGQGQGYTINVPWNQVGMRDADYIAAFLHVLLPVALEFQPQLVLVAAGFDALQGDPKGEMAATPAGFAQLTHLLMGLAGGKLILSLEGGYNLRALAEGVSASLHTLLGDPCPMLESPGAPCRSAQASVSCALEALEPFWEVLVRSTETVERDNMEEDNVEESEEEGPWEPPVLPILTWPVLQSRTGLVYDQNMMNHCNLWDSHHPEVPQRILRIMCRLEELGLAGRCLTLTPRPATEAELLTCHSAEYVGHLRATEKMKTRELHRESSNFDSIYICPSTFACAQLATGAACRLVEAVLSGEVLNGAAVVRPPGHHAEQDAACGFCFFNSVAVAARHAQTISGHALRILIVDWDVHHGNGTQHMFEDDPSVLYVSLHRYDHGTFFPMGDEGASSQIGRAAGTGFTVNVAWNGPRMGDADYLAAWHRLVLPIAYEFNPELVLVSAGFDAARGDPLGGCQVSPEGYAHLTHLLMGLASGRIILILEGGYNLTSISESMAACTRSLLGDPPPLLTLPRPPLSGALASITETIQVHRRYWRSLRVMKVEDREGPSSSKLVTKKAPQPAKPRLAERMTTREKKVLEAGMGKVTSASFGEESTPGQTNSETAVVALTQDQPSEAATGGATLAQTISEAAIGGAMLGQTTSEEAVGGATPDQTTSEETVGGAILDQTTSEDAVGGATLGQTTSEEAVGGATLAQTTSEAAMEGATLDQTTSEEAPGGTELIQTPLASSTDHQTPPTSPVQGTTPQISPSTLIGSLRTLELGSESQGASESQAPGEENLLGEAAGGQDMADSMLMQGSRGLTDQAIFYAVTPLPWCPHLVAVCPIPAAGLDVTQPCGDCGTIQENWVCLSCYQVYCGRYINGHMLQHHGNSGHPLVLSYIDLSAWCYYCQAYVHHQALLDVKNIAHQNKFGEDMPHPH
Assay: Inhibition of HDAC6 (unknown origin) using Ac-LeuGlyLys(Ac)-AMC as substrate preincubated for 5 mins followed by substrate addition and measured after 60 mins by fluorescence based assay
Conditions: not given

`O=C(CCC1C(=O)N(c2ccc(Cl)cc2)C(=O)N1Cc1ccc(Br)cc1)NCc1ccc(C(=O)NO)cc1` (centres undefined) and `Cc1ccc(CN2C(=O)N(c3ccc(Cl)cc3)C(=O)C2CCC(=O)NCc2ccc(C(=O)NO)cc2)cc1` (centres undefined) are within 1.5-fold of each other in IC50: 16.5 nM for the first, 18.9 nM for the second.

`O=C(CCC1C(=O)N(c2ccc(Cl)cc2)C(=O)N1Cc1ccccc1)NCc1ccc(C(=O)NO)cc1` (centres undefined) and `O=C(CCC1C(=O)N(c2ccccc2)C(=O)N1Cc1ccc(Br)cc1)NCc1ccc(C(=O)NO)cc1` (centres undefined) are within 1.5-fold of each other in IC50: 12.7 nM for the first, 13.6 nM for the second.

`Cc1ccc(CN2C(=O)N(c3ccc(Cl)cc3)C(=O)C2CCC(=O)Nc2cccc(C(=O)NO)c2)cc1` (centres undefined) and `O=C(CCC1C(=O)N(c2ccc(Cl)cc2)C(=O)N1Cc1ccccc1)Nc1cccc(C(=O)NO)c1` (centres undefined) cannot be ordered by IC50: greater than 40 nM for the first, greater than 40 nM for the second.

`O=C(CCC1C(=O)N(Cc2ccccc2)C(=O)N1Cc1ccc(Br)cc1)Nc1ccc(C(=O)NO)cc1` (centres undefined) and `Cc1ccc(CN2C(=O)N(C3CCCCC3)C(=O)C2CCC(=O)Nc2ccc(C(=O)NO)cc2)cc1` (centres undefined) are within 1.5-fold of each other in IC50: 9.8 nM for the first, 10.3 nM for the second.

Compared with `Cc1ccc(CN2C(=O)N(C3CCCCC3)C(=O)C2CCC(=O)NCc2ccc(C(=O)NO)cc2)cc1` (centres undefined), `CCCN1C(=O)N(C2CCCCC2)C(=O)C1CCC(=O)Nc1ccc(C(=O)NO)cc1` (centres undefined) is higher in IC50: 17 nM for the first, greater than 40 nM for the second.

First: CN1C(=O)N(c2ccc(Cl)cc2)C(=O)C1CCC(=O)NCc1ccc(C(=O)NO)cc1 (centres undefined)
Second: CN1C(=O)N(c2ccc(Cl)cc2)C(=O)C1CCC(=O)Nc1ccc(C(=O)NO)cc1 (centres undefined)
The IC50 of the first is 1.7-fold higher: 11.8 nM for the first, 7 nM for the second.

`CCCN1C(=O)N(c2ccc(Cl)cc2)C(=O)C1CCC(=O)Nc1ccc(C(=O)NO)cc1` (centres undefined) gave an IC50 of 12.6 nM.
